Reference: US20090239845A1, “PYRAZOLE COMPOUNDS AS PROSTAGLANDIN RECEPTORS LIGANDS” (priority 2005, published 2009)
Structures can show the parent of a compound that is named as a salt.

Biological target: T1, human EP3 receptor (Homo sapiens, UniProt P43115)
T1 construct: expressed in transfected cells; host or cells: CHO-K1
T1 sequence (P43115 1-390): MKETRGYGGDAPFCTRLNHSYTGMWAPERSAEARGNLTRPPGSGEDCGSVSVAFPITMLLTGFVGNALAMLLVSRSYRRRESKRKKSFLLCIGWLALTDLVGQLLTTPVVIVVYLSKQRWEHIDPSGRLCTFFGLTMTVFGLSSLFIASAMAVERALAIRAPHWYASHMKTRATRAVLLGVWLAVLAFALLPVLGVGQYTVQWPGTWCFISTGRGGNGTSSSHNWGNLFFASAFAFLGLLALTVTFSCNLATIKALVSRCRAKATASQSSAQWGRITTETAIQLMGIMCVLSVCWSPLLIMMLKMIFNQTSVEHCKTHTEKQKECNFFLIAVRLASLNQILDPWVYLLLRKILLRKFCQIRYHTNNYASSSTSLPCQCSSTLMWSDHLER
Experiment: human EP3 calcium mobilisation assay
Type: cell-based
Settings: negative logarithm10 of the antagonist dissociation constant; CHO-K1 cells, PGE2; free bases or sodium salts; averages of a number of experiments; read-out: functional pKi value (converted)
Procedure: Briefly, the antagonist properties of compounds are assessed by their ability to inhibit the mobilisation of intracellular calcium ([Ca^2+]i) in response to activation of EP1 or EP3 receptors by the natural agonist hormone prostaglandin E2 (PGE2). Increasing concentrations of antagonist reduce the amount of calcium that a given concentration of PGE2 can mobilise. The net effect is to displace the PGE2 concentration-effect curve to higher concentrations of PGE2. The amount of calcium produced is assessed using a calcium-sensitive fluorescent dye such as Fluo-4, AM and a suitable instrument such as a Fluorimetric Imaging Plate Reader (FLIPR). Increasing amounts of [Ca^2+]i produced by receptor activation increase the amount of fluorescence produced by the dye and give rise to an increasing signal. The signal may be detected using the FLIPR instrument and the data generated may be analysed with suitable curve-fitting software.
The human EP1 or EP3 calcium mobilisation assay (hereafter referred to as ‘the calcium assay’) utilises Chinese hamster ovary-K1 (CHO-K1) cells into which a stable (pCIN; BioTechniques 20 (1996): 102-110) vector containing either EP1 or EP3 cDNA has previously been transfected. Cells are cultured in suitable flasks containing culture medium such as DMEM:F-12 supplemented with 10% v/v foetal calf serum, 2 mM L-glutamine, 0.25 mg/ml geneticin, 100 μM flurbiprofen and 10 μg/ml puromycin.
For assay, cells are harvested using a proprietary reagent that dislodges cells such as Versene. Cells are re-suspended in a suitable quantity of fresh culture media for introduction into a 384-well plate. Following incubation for 24 hours at 37° C. the culture media is replaced with a medium containing Fluo-4 and the detergent pluronic acid, and a further incubation takes place. Concentrations of compounds are then added to the plate in order to construct concentration-effect curves. This may be performed on the FLIPR in order to assess the agonist properties of the compounds. Concentrations of PGE2 are then added to the plate in order to assess the antagonist properties of the compounds.
The data so generated may be analysed by means of a computerised curve-fitting routine. The concentration of compound that elicits a half-maximal inhibition of the calcium mobilisation induced by PGE2 (plC50) may then be estimated.

Structure (SMILES) | Ki
Cc1cc(N(C)C(=O)OC(C)(C)C)nn1Cc1cc(Cl)ccc1OCc1ccccc1 [Example 75, 1,1-Dimethylethyl[({5-chloro-2-[(phenylmethyl)oxy]phenyl}methyl)-5-methyl-1H-pyrazol-3-yl]methylcarbamate] | 158 to 316 nM
Cc1cc(N2CCN(Cc3ccccn3)CC2=O)nn1Cc1cc(Cl)ccc1OCC(C)C [Example 227, 1-[1-({5-Chloro-2-[(2-methylpropyl)oxy]phenyl}methyl)-5-methyl-1H-pyrazol-3-yl]-4-(2-pyridinylmethyl)-2-piperazinone dihydrochloride] | 158 to 316 nM
Cc1cc(NC(=O)c2cccc(C=O)c2)nn1Cc1cc(Cl)ccc1OCC(C)C [Example 187, N-[1-({5-Chloro-2-[(2-methylpropyl)oxy]phenyl}methyl)-5-methyl-1H-pyrazol-3-yl]-3-formylbenzamide] | 158 to 316 nM
Cc1cc(NC(=O)C(F)(F)F)nn1Cc1cc(Cl)ccc1OCC(C)C [Example 95, N-[1-({5-Chloro-2-[(2-methylpropyl)oxy]phenyl}methyl)-5-methyl-1H-pyrazol-3-yl]-2,2,2-trifluoroacetamide] | 158 to 316 nM
Cc1cc(OC(=O)NC2CCCC2)nn1Cc1cc(Cl)ccc1OCC(C)C [Example 52, 1-({5-Chloro-2-[(2-methylpropyl)oxy]phenyl}methyl)-5-methyl-1H-pyrazol-3-yl cyclopentylcarbamate] | 158 to 316 nM
Cc1cc(N2Cc3ccccc3C2=O)nn1Cc1cc(Cl)ccc1OCC(C)C [Example 184, 2-[1-({5-Chloro-2-[(2-methylpropyl)oxy]phenyl}methyl)-5-methyl-1H-pyrazol-3-yl]-2,3-dihydro-1H-isoindol-1-one] | 158 to 316 nM
CCC(C)NC(=O)Oc1cc(C)n(Cc2cc(Cl)ccc2OCC(C)C)n1 (stereo not drawn) [Example 50, 1-({5-Chloro-2-[(2-methylpropyl)oxy]phenyl}methyl)-5-methyl-1H-pyrazol-3-yl (1-methylpropyl)carbamate] | 158 to 316 nM
Cc1cc(N(C)C(=O)c2ccccc2)nn1Cc1cc(Cl)ccc1OCc1ccccc1 [Example 180, N-[1-({5-Chloro-2-[(phenylmethyl)oxy]phenyl}methyl)-5-methyl-1H-pyrazol-3-yl]-N-methylbenzamide] | 158 to 316 nM
Cc1cc(-c2cn3ccccc3n2)nn1Cc1cc(Cl)ccc1OCC(C)C [Example 364, 2-[1-({5-Chloro-2-[(2-methylpropyl)oxy]phenyl}methyl)-5-methyl-1H-pyrazol-3-yl]imidazo[1,2-a]pyridine hydrochloride] | 158 to 316 nM
Cc1cc(NC(=O)c2ccccc2CO)nn1Cc1cc(Cl)ccc1OCC(C)C [Example 183, N-[1-({5-Chloro-2-[(2-methylpropyl)oxy]phenyl}methyl)-5-methyl-1H-pyrazol-3-yl]-2-(hydroxymethyl)benzamide] | 158 to 316 nM
CCOC(CNC(=O)c1cc(C)n(Cc2cc(Cl)ccc2OCC(C)C)n1)OCC [Example 387, N-[2,2-Bis(ethyloxy)ethyl]-1-({5-chloro-2-[(2-methylpropyl)oxy]phenyl}methyl)-5-methyl-1H-pyrazole-3-carboxamide] | 158 to 316 nM

Tested on: rat model of chronic constriction injury
Experiment: not given
Settings: Anesthesia and Analgesia 2001, 93, 1012-7; cited from earlier work

Structure (SMILES) | hyperalgesia and allodynia
Cc1cc(Cl)ccc1S(=O)(=O)NC[C@H]1C2CCC(CC2)[C@@H]1/C=C\CCCC(=O)O [ONO-8711] | reduces hyperalgesia and allodynia

Tested on: rodent model of post-operative pain
Experiment: not given
Settings: Anesthesia and Analgesia 2001, 92, 233-238; cited from earlier work

Structure (SMILES) | mechanical hyperalgesia
Cc1cc(Cl)ccc1S(=O)(=O)NC[C@H]1C2CCC(CC2)[C@@H]1/C=C\CCCC(=O)O [ONO-8711] | inhibits mechanical hyperalgesia

Tested on: gastric lesions induced by taurocholate acid, aspirin or indomethacin
Experiment: not given
Settings: rats, J Pharmacol Exp Ther 1992, 263(1), 374-380; cited from earlier work

Structure (SMILES) | gastric lesions
O=C(O)Cc1ccc(CCNS(=O)(=O)c2ccc(Cl)cc2)cc1 [BM 13505] | inhibit gastric lesions
O=C(O)CCc1ccccc1CC1C2CCC(O2)C1c1nc(C(=O)NCCCCC2CCCCC2)co1 (stereo not drawn) [SQ 33961] | inhibit gastric lesions
